Experimental data taken from the CheMixHub viscosity set.
± gives the uncertainty stated by the source.

Assay: xn = mol fraction of the nth substance listed

OCCO + CN(C)C=O
Conditions	viscosity [mPa·s]
293.15 K, 101 kPa, x2 = 0.0864	16.12 ± 0.41
293.15 K, 101 kPa, x2 = 0.1758	11.93 ± 0.3
293.15 K, 101 kPa, x2 = 0.3623	6.277 ± 0.16
293.15 K, 101 kPa, x2 = 0.5609	3.23 ± 0.083
293.15 K, 101 kPa, x2 = 0.7734	1.66 ± 0.043
293.15 K, 101 kPa, x2 = 0.8848	1.191 ± 0.031
298.15 K, 100 kPa, x1 = 0.1049	1.27 ± 0.6
298.15 K, 100 kPa, x1 = 0.2019	1.64 ± 0.6
298.15 K, 100 kPa, x1 = 0.3063	2.27 ± 0.6
298.15 K, 100 kPa, x1 = 0.3993	2.9 ± 0.6
298.15 K, 100 kPa, x1 = 0.4986	3.95 ± 0.6
298.15 K, 100 kPa, x1 = 0.6048	5.35 ± 0.6
298.15 K, 100 kPa, x1 = 0.7069	7.24 ± 0.6
298.15 K, 100 kPa, x1 = 0.8032	9.44 ± 0.61
298.15 K, 100 kPa, x1 = 0.9054	12.85 ± 0.61
298.15 K, 101 kPa, x1 = 0.5408	3.065 ± 0.023
298.15 K, 101 kPa, x2 = 0.0864	13.24 ± 0.34
298.15 K, 101 kPa, x2 = 0.1758	9.921 ± 0.25
298.15 K, 101 kPa, x2 = 0.3623	5.381 ± 0.14
298.15 K, 101 kPa, x2 = 0.5609	2.852 ± 0.073
298.15 K, 101 kPa, x2 = 0.7734	1.518 ± 0.039
298.15 K, 101 kPa, x2 = 0.8848	1.105 ± 0.029
303.15 K, 100 kPa, x1 = 0.1049	1.23 ± 0.6
303.15 K, 100 kPa, x1 = 0.2019	1.52 ± 0.6
303.15 K, 100 kPa, x1 = 0.3063	2.03 ± 0.6
303.15 K, 100 kPa, x1 = 0.3993	2.63 ± 0.6
303.15 K, 100 kPa, x1 = 0.4986	3.6 ± 0.6
303.15 K, 100 kPa, x1 = 0.6048	4.53 ± 0.6
303.15 K, 100 kPa, x1 = 0.7069	6.12 ± 0.6
303.15 K, 100 kPa, x1 = 0.8032	7.92 ± 0.6
303.15 K, 100 kPa, x1 = 0.9054	10.48 ± 0.61
303.15 K, 101 kPa, x2 = 0.0864	10.91 ± 0.28
303.15 K, 101 kPa, x2 = 0.1758	8.25 ± 0.21
303.15 K, 101 kPa, x2 = 0.3623	4.639 ± 0.12
303.15 K, 101 kPa, x2 = 0.5609	2.551 ± 0.065
303.15 K, 101 kPa, x2 = 0.7734	1.392 ± 0.036
303.15 K, 101 kPa, x2 = 0.8848	1.027 ± 0.027
308.15 K, 100 kPa, x1 = 0.1049	1.15
308.15 K, 100 kPa, x1 = 0.2019	1.4 ± 0.6
308.15 K, 100 kPa, x1 = 0.3063	1.81 ± 0.6
308.15 K, 100 kPa, x1 = 0.3993	2.41 ± 0.6
308.15 K, 100 kPa, x1 = 0.4986	3.16 ± 0.6
308.15 K, 100 kPa, x1 = 0.6048	4.05 ± 0.6
308.15 K, 100 kPa, x1 = 0.7069	5.18 ± 0.6
308.15 K, 100 kPa, x1 = 0.8032	6.83 ± 0.6
308.15 K, 100 kPa, x1 = 0.9054	8.79 ± 0.6
308.15 K, 101 kPa, x1 = 0.0257	0.758 ± 0.039
308.15 K, 101 kPa, x1 = 0.0458	0.816 ± 0.041
308.15 K, 101 kPa, x1 = 0.0974	0.872 ± 0.044
308.15 K, 101 kPa, x1 = 0.1399	0.956 ± 0.095
308.15 K, 101 kPa, x1 = 0.1921	1.151 ± 0.056
308.15 K, 101 kPa, x1 = 0.2568	1.132 ± 0.11
308.15 K, 101 kPa, x1 = 0.2919	1.453 ± 0.069
308.15 K, 101 kPa, x1 = 0.3715	1.288 ± 0.12
308.15 K, 101 kPa, x1 = 0.3822	1.814 ± 0.084
308.15 K, 101 kPa, x1 = 0.4762	1.898 ± 0.18
308.15 K, 101 kPa, x1 = 0.4917	2.392 ± 0.11
308.15 K, 101 kPa, x1 = 0.5807	2.801 ± 0.25
308.15 K, 101 kPa, x1 = 0.5882	3.131 ± 0.14
308.15 K, 101 kPa, x1 = 0.6745	3.878 ± 0.34
308.15 K, 101 kPa, x1 = 0.6889	4.137 ± 0.18
308.15 K, 101 kPa, x1 = 0.7677	5.167 ± 0.44
308.15 K, 101 kPa, x1 = 0.783	5.498 ± 0.23
308.15 K, 101 kPa, x1 = 0.8456	6.582 ± 0.53
308.15 K, 101 kPa, x1 = 0.885	7.454 ± 0.3
308.15 K, 101 kPa, x1 = 0.9229	8.355 ± 0.64
308.15 K, 101 kPa, x1 = 0.9484	9.02 ± 0.35
308.15 K, 101 kPa, x1 = 0.968	10.48 ± 0.4
308.15 K, 101 kPa, x2 = 0.0864	9.133 ± 0.23
308.15 K, 101 kPa, x2 = 0.1758	7.023 ± 0.18
308.15 K, 101 kPa, x2 = 0.3623	4.044 ± 0.1
308.15 K, 101 kPa, x2 = 0.5609	2.289 ± 0.059
308.15 K, 101 kPa, x2 = 0.7734	1.285 ± 0.033
308.15 K, 101 kPa, x2 = 0.8848	0.957 ± 0.025
313.15 K, 100 kPa, x1 = 0.1049	1.08
313.15 K, 100 kPa, x1 = 0.2019	1.28 ± 0.6
313.15 K, 100 kPa, x1 = 0.3063	1.67 ± 0.6
313.15 K, 100 kPa, x1 = 0.3993	2.24 ± 0.6
313.15 K, 100 kPa, x1 = 0.4986	2.82 ± 0.6
313.15 K, 100 kPa, x1 = 0.6048	3.47 ± 0.6
313.15 K, 100 kPa, x1 = 0.7069	4.54 ± 0.6
313.15 K, 100 kPa, x1 = 0.8032	5.68 ± 0.6
313.15 K, 100 kPa, x1 = 0.9054	7.45 ± 0.6
313.15 K, 101 kPa, x2 = 0.0864	7.725 ± 0.2
313.15 K, 101 kPa, x2 = 0.1758	5.998 ± 0.15
313.15 K, 101 kPa, x2 = 0.3623	3.551 ± 0.091
313.15 K, 101 kPa, x2 = 0.5609	2.064 ± 0.053
313.15 K, 101 kPa, x2 = 0.7734	1.185 ± 0.031
313.15 K, 101 kPa, x2 = 0.8848	0.8951 ± 0.023
318.15 K, 100 kPa, x1 = 0.1049	0.96
318.15 K, 100 kPa, x1 = 0.2019	1.21 ± 0.6
318.15 K, 100 kPa, x1 = 0.3063	1.53 ± 0.6
318.15 K, 100 kPa, x1 = 0.3993	2.12 ± 0.6
318.15 K, 100 kPa, x1 = 0.4986	2.43 ± 0.6
318.15 K, 100 kPa, x1 = 0.6048	3.05 ± 0.6
318.15 K, 100 kPa, x1 = 0.7069	3.98 ± 0.6
318.15 K, 100 kPa, x1 = 0.8032	5.04 ± 0.6
318.15 K, 100 kPa, x1 = 0.9054	6.45 ± 0.6
318.15 K, 101 kPa, x2 = 0.0864	6.606 ± 0.17
318.15 K, 101 kPa, x2 = 0.1758	5.171 ± 0.13
318.15 K, 101 kPa, x2 = 0.3623	3.139 ± 0.08
318.15 K, 101 kPa, x2 = 0.5609	1.873 ± 0.048
318.15 K, 101 kPa, x2 = 0.7734	1.096 ± 0.028
318.15 K, 101 kPa, x2 = 0.8848	0.8415 ± 0.022
323.15 K, 100 kPa, x1 = 0.1049	0.87
323.15 K, 100 kPa, x1 = 0.2019	1.08
323.15 K, 100 kPa, x1 = 0.3063	1.38 ± 0.6
323.15 K, 100 kPa, x1 = 0.3993	1.92 ± 0.6
323.15 K, 100 kPa, x1 = 0.4986	2.19 ± 0.6
323.15 K, 100 kPa, x1 = 0.6048	2.8 ± 0.6
323.15 K, 100 kPa, x1 = 0.7069	3.53 ± 0.6
323.15 K, 100 kPa, x1 = 0.8032	4.4 ± 0.6
323.15 K, 100 kPa, x1 = 0.9054	5.59 ± 0.6
323.15 K, 101 kPa, x2 = 0.0864	5.671 ± 0.14
323.15 K, 101 kPa, x2 = 0.1758	4.507 ± 0.12
323.15 K, 101 kPa, x2 = 0.3623	2.789 ± 0.071
323.15 K, 101 kPa, x2 = 0.5609	1.711 ± 0.044
323.15 K, 101 kPa, x2 = 0.7734	1.022 ± 0.027
323.15 K, 101 kPa, x2 = 0.8848	0.7911 ± 0.021
